Measured values: US20060069123A1, “Substituted dipiperidine CCR2 antagonists” (priority 2004, published 2006)
Like-named read-outs stand apart in the source and are kept apart here.

What was measured:
CCR2 = molecular target: T1, CCR2 (Homo sapiens, UniProt P41597)
T1 sequence (P41597 1-360 isoform P41597-2): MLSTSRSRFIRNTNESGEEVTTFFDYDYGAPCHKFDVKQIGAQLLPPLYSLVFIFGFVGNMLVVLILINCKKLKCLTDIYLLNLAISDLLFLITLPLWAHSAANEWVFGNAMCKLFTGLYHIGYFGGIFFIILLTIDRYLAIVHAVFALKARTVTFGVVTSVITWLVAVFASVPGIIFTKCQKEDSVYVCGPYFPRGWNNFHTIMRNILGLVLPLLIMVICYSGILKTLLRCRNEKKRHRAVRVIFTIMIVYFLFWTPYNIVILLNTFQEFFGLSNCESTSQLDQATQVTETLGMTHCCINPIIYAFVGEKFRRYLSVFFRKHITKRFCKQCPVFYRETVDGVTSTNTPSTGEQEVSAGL

THP-1 cells [1] = experiment: MCP-1 Induced Chemotaxis in THP-1 Cells; type: cell-based; details: Homo sapiens; THP-1 cells, MCP-1 0.01 μg/mL, 3 hours; read-out: Inhibition of MCP-1 Induced Chemotaxis IC50
Method: MCP-1 Induced Chemotaxis in THP-1 Cells
MCP-1 induced chemotaxis was run in a 24-well chemotaxis chamber. MCP-1 (0.01 μg/mL) was added to the lower chamber and 100 μL of THP-1 cells (1×10^7 cell/mL) was added to the top chamber. Varying concentrations of test compound were added to the top and bottom chambers. Cells were allowed to chemotax for 3 hours at 37° C. and 5% CO2. An aliquot of the cells that had migrated to the bottom chamber was taken and counted then compared to vehicle.

THP-1 cells [2] = details: Homo sapiens; for IC50: THP-1, read-out: Inhibition of MCP-1 Induced Calcium Ion Influx IC50; for inhibition at 25 µM: THP-1, read-out: Inhibition of MCP-1 Induced Calcium Ion Influx, percent inhibition

Row | Compound | IC50 (CCR2) [nM] | IC50 (THP-1 cells [1]) [nM] | IC50 (THP-1 cells [2]) [nM] | inhibition at 25 µM (CCR2; read-out: Inhibition of MCP-1 Binding, percent inhibition) [%] | inhibition at 25 µM (THP-1 cells [2]) [%]
1 | O=C(O)C(C1CCN(C(=O)/C=C/c2ccc(F)c(Cl)c2)CC1)N1CCC(c2c[nH]c3ccccc23)CC1 (stereo not drawn) [Cpd 76, {1-[(2E)-3-(3-chloro-4-fluoro-phenyl)-acryloyl]-piperidin-4-yl}-[4-(1H-indol-3-yl)-piperidin-1-yl]-acetic acid] | 2 | 10 |  |  | 
2 | O=C(O)C(C1CCN(C(=O)/C=C/c2ccc(F)cc2)CC1)N1CCC(c2c[nH]c3ccccc23)CC1 (stereo not drawn) [Cpd 77, {1-[(2E)-3-(4-fluoro-phenyl)-acryloyl]-piperidin-4-yl}-[4-(1H-indol-3-yl)-piperidin-1-yl]-acetic acid] | 70 | 60 |  |  | 
3 | CC(C)(C)OC(=O)Nc1ccc2[nH]cc(C3CCN(C(C(=O)O)C4CCN(C(=O)/C=C/c5cc(F)c(F)c(F)c5)CC4)CC3)c2c1 (stereo not drawn) [Cpd 81] | 30 | 30 |  |  | 
4 | O=C(O)C(C1CCN(C(=O)Nc2cccc(Br)c2)CC1)N1CCC(c2c[nH]c3ccccc23)CC1 (stereo not drawn) [Cpd 85, [1-(3-bromo-phenylcarbamoyl)-piperidin-4-yl]-[4-(1H-indol-3-yl)-piperidin-1-yl]-acetic acid] | 170 | 190 |  |  | 
5 | O=C(O)C(C1CCN(C(=O)/C=C/c2cccc(Cl)c2)CC1)N1CCC(c2c[nH]c3ccccc23)CC1 (stereo not drawn) [Cpd 93, {1-[(2E)-3-(3-chloro-phenyl)-acryloyl]-piperidin-4-yl}-[4-(1H-indol-3-yl)-piperidin-1-yl]-acetic acid] | 4 | 20 |  |  | 
6 | COc1ccc2c(C3CCN(C(C(=O)O)C4CCN(C(=O)Nc5ccc(Cl)c(Cl)c5)CC4)CC3)c[nH]c2c1 (stereo not drawn) [Cpd 95, [1-(3,4-dichloro-phenylcarbamoyl)-piperidin-4-yl]-[4-(6-methoxy-1H-indol-3-yl)-piperidin-1-yl]-acetic acid] | 20 | 20 |  |  | 
7 | OCC(C1CCN(C(=S)Nc2ccc(Cl)c(Cl)c2)CC1)N1CCC(c2c[nH]c3ccccc23)CC1 (stereo not drawn) [Cpd 122, 4-{2-hydroxy-1-[4-(1H-indol-3-yl)-piperidin-1-yl]-ethyl}-piperidine-1-carbothioic acid (3,4-dichloro-phenyl)-amide] | 40 |  | 0.8 |  | 
8 | N=C(NC(=O)c1ccc(Cl)c(Cl)c1)N1CCC(C(CO)N2CCC(c3c[nH]c4ccccc34)CC2)CC1 (stereo not drawn) [Cpd 128, 3,4-dichloro-N-[(4-{2-hydroxy-1-[4-(1H-indol-3-yl)-piperidin-1-yl]-ethyl}-piperidin-1-yl)-imino-methyl]-benzamide] | 320 |  | 20 |  | 
9 | O=C(O)C(C1CCN(C(=O)/C=C/c2cc(F)c(F)c(F)c2)CC1)N1CCC(c2c[nH]c3ncccc23)CC1 (stereo not drawn) [Cpd 151, [4-(1H-pyrrolo[2,3-b]pyridin-3-yl)-piperidin-1-yl]-{1-[(2E)-3-(3,4,5-trifluoro-phenyl)-acryloyl]-piperidin-4-yl}-acetic acid] | 10 | 30 |  |  | 
10 | O=C(/C=C/c1cc(F)cc(F)c1)N1CCC(C(CO)N2CCC(c3nc4ccccc4[nH]3)CC2)CC1 (stereo not drawn) [Cpd 174, (2E)-1-(4-{1-[4-(1H-benzoimidazol-2-yl)-piperidin-1-yl]-2-hydroxy-ethyl}-piperidin-1-yl)-3-(3,5-difluoro-phenyl)-propenone] | 150 | 450 |  |  | 
11 | O=CNCC(C1CCN(C(=O)/C=C/c2cc(F)c(F)c(F)c2)CC1)N1CCC(c2c[nH]c3ccccc23)CC1 (stereo not drawn) [Cpd 220] | 440 |  | 960 |  | 

Continued, in another order:

Row | IC50 (CCR2) [nM] | IC50 (THP-1 cells [1]) [nM] | IC50 (THP-1 cells [2]) [nM] | inhibition at 25 µM (CCR2; read-out: Inhibition of MCP-1 Binding, percent inhibition) [%] | Compound | inhibition at 25 µM (THP-1 cells [2]) [%]
12 | 3 | 20 |  |  | Cc1cccc(/C=C/C(=O)N2CCC(C(C(=O)O)N3CCC(c4c[nH]c5ccccc45)CC3)CC2)c1 (stereo not drawn) [Cpd 70, [4-(1H-indol-3-yl)-piperidin-1-yl]-{1-[(2E)-3-m-tolyl-acryloyl]-piperidin-4-yl}-acetic acid] | 
13 | 20 | 7 |  |  | O=C(O)C(C1CCN(C(=O)/C=C/c2cccc(Br)c2)CC1)N1CCC(c2c[nH]c3ccccc23)CC1 (stereo not drawn) [Cpd 71, {1-[(2E)-3-(3-bromo-phenyl)-acryloyl]-piperidin-4-yl}-[4-(1H-indol-3-yl)-piperidin-1-yl]-acetic acid] | 
14 | 5 | 6 |  |  | Cc1ccc(/C=C/C(=O)N2CCC(C(C(=O)O)N3CCC(c4c[nH]c5ccccc45)CC3)CC2)cc1F (stereo not drawn) [Cpd 74, {1-[(2E)-3-(3-fluoro-4-methyl-phenyl)-acryloyl]-piperidin-4-yl}-[4-(1H-indol-3-yl)-piperidin-1-yl]-acetic acid] | 
15 | 4 | 9 |  |  | O=C(O)C(C1CCN(C(=O)/C=C/c2ccc(C(F)(F)F)c(F)c2)CC1)N1CCC(c2c[nH]c3ccccc23)CC1 (stereo not drawn) [Cpd 75, {1-[(2E)-3-(3-fluoro-4-trifluoromethyl-phenyl)-acryloyl]-piperidin-4-yl}-[4-(1H-indol-3-yl)-piperidin-1-yl]-acetic acid] | 
16 | 210 | 280 |  |  | O=C(O)C(C1CCN(C(=O)Nc2cccc(Cl)c2)CC1)N1CCC(c2c[nH]c3ccccc23)CC1 (stereo not drawn) [Cpd 86, [1-(3-chloro-phenylcarbamoyl)-piperidin-4-yl]-[4-(1H-indol-3-yl)-piperidin-1-yl]-acetic acid] | 
17 | 40 | 100 |  |  | O=C(O)C(C1CCN(C(=O)/C=C/c2cccc([N+](=O)[O-])c2)CC1)N1CCC(c2c[nH]c3ccccc23)CC1 (stereo not drawn) [Cpd 92, [4-(1H-indol-3-yl)-piperidin-1-yl]-{1-[(2E)-3-(3-nitro-phenyl)-acryloyl]-piperidin-4-yl}-acetic acid] | 
18 | 10 | 10 |  |  | COc1ccc2[nH]cc(C3CCN(C(C(=O)O)C4CCN(C(=O)Nc5ccc(Cl)c(Cl)c5)CC4)CC3)c2c1 (stereo not drawn) [Cpd 94, [1-(3,4-dichloro-phenylcarbamoyl)-piperidin-4-yl]-[4-(5-methoxy-1H-indol-3-yl)-piperidin-1-yl]-acetic acid] | 
19 | 80 |  | 1 |  | OCC(C1CCN(C(=S)Nc2cccc(C(F)(F)F)c2)CC1)N1CCC(c2c[nH]c3ccccc23)CC1 (stereo not drawn) [Cpd 120, 4-{2-hydroxy-1-[4-(1H-indol-3-yl)-piperidin-1-yl]-ethyl}-piperidine-1-carbothioic acid (3-trifluoromethyl-phenyl)-amide] | 
20 | 130 |  | 70 |  | OCC(C1CCN(C(=S)Nc2cc(F)cc(F)c2)CC1)N1CCC(c2c[nH]c3ccccc23)CC1 (stereo not drawn) [Cpd 124, 4-{2-hydroxy-1-[4-(1H-indol-3-yl)-piperidin-1-yl]-ethyl}-piperidine-1-carbothioic acid (3,5-difluoro-phenyl)-amide] | 
21 |  |  |  | 56 | COc1ccc(C2CCN(C(CO)C3CCN(C(=O)c4cc5cc(Cl)ccc5o4)CC3)CC2)cc1 (stereo not drawn) [Cpd 160, (5-chloro-benzofuran-2-yl)-(4-{2-hydroxy-1-[4-(4-methoxy-phenyl)-piperidin-1-yl]-ethyl}-piperidin-1-yl)-methanone] | 33
22 | 1600 |  |  |  | O=C(/C=C/c1cccc(C(F)(F)F)c1)N1CCC(C(CO)N2CCC(c3ccncc3)CC2)CC1 (stereo not drawn) [Cpd 184, (2E)-1-{4-[2-hydroxy-1-(3,4,5,6-tetrahydro-2H-[4,4′]bipyridinyl-1-yl)-ethyl]-piperidin-1-yl}-3-(3-trifluoromethyl-phenyl)-propenone] | 14
23 | 370 |  | 1900 |  | CC(=O)NCC(C1CCN(C(=O)/C=C/c2cccc(C(F)(F)F)c2)CC1)N1CCC(c2c[nH]c3ccccc23)CC1 (stereo not drawn) [Cpd 218] | 
24 | 340 |  |  |  | CC(=O)NCC(C1CCN(C(=O)/C=C/c2ccsc2)CC1)N1CCC(c2c[nH]c3ccccc23)CC1 (stereo not drawn) [Cpd 219] | 52
